In patent US12441679B2, “Acrylamide-substituted indane compounds and therapeutic use thereof” (Sanofi, priority 2020, dated 2025):

Test system: YAP1-TEAD and TAZ-TEAD activity (TEAD responsive promoter element)
Experiment: TEAD-Luciferase Reporter Assay (8XGTIIC-Luciferase construct stably integrated in tumor cell lines)
Type: cell-based, human
Conditions: Homo sapiens; 8XGTIIC-Luciferase reporter in tumor cell lines, 48 hrs compound treatment, 10 doses 1-10000 nM
Text: TEAD-Luciferase Reporter Assay
Luciferase-based gene reporter assays were used, employing the TEAD responsive promoter element that are stably integrated to different human tumor cell lines in order to monitor YAP1-TEAD and TAZ-TEAD activity and to study YAP1/TAZ-TEAD activity modulation by small molecule compounds. Luciferase-based gene reporter assays employing the GAPDH promoter element and stably integrated to different human tumor cell lines are used as counter screen control cell lines.
Tumor cell lines with stable integration of the 8XGTIIC-Luciferase construct (Dupont et al., Nature 2011) or the GAPDH-Luciferase control plasmid, are seeded in culture medium in 96-well plates at a density of 8000 cells/well. Following an overnight incubation in a 37° C., 5% CO2 growth chamber, cells are treated with compounds described above at 10 doses ranging between 1 and 10000 nM for 48 hrs. After compound incubation, cells are lysed with Bright-Glo Luciferase Assay System (Promega E2620) and luciferase activity is measured using a luminescent plate reader.
The inhibitory activity of the compounds with respect to luciferase activity is given by the concentration which inhibits 50% of activity of non-treated cells. IC50s are determined with a nonlinear regression model on XLfit software analysis (IDBS, UK).

Structure (SMILES) | IC50 [nM]
C=CC(=O)Nc1cc(F)c2c(c1)CCC2Nc1cccc(C(F)(F)F)c1 (stereo not drawn) [Example 67, N-[7-fluoro-1-[3-(trifluoromethyl)anilino]-2,3-dihydro-1H-inden-5-yl]acrylamide] | 53
C=CC(=O)Nc1ccc2c(c1)CC[C@H]2Oc1cccc(C(F)(F)F)c1 (single isomer, unassigned) [Example 85] | 42
C=CC(=O)Nc1ccc2c(c1)C(Oc1cccc(C(=O)OC)c1)CC2 (stereo not drawn) [Example 47, methyl 3-[6-(prop-2-enoylamino)-2,3-dihydro-1H-inden-1-yl]oxybenzoate] | 4350
C=CC(=O)Nc1ccc2c(c1)CC(N[C@H]1CC[C@H](C(F)(F)F)CC1)C2 (relative stereo) [Example 27, N-(2-(((trans)-4-(trifluoromethyl)cyclohexyl)amino)-2,3-dihydro-1H-inden-5-yl)acrylamide] | > 10000
C=CC(=O)Nc1ccc2c(c1)CC(Nc1cccc(C(F)(F)F)c1)C2 (stereo not drawn) [Example 32, N-(2-((3-(trifluoromethyl)phenyl)amino)-2,3-dihydro-1H-inden-5-yl)acrylamide] | 64
C=CC(=O)Nc1ccc2c(c1)CC[C@H]2Nc1ccc(C(F)(F)F)cc1 (single isomer, unassigned) [Example 55] | 38
C=CC(=O)Nc1ccc2c(c1)C(Nc1ccc(F)cc1)CC2 (stereo not drawn) [Example 15, N-(3-((4-fluorophenyl)amino)-2,3-dihydro-1H-inden-5-yl)acrylamide] | 48
C=CC(=O)Nc1ccc2c(c1)CCC2Nc1ccc(C(F)(F)F)cc1 (stereo not drawn) [Example 10, N-(1-((4-(trifluoromethyl)phenyl)amino)-2,3-dihydro-1H-inden-5-yl)acrylamide] | 44
C=CC(=O)Nc1ccc2c(c1)C[C@@H](Nc1cccc(F)c1)C2 (single isomer, unassigned) [Example 48] | 69
